Results as given in PMC7395068, “The evolution of strategies to minimise the risk of human drug-induced liver injury (DILI) in drug discovery and development” (Archives of Toxicology, 2020).

Experiments:
[1] = Total human plasma exposure Cmax.tot; type: in vivo; conditions: across literature references
HepaRG cells = conditions: HepaRG cells, BMCs in relation to 10 × human Cmax.tot; ref National Toxicology Program; cited from earlier work

| Compound | difference in Cmax.tot values utilised across studies [1] [fold] | DILI identification by high-throughput transcriptomics (HepaRG cells) |
| --- | --- | --- |
| CC(C)C(=O)Nc1ccc([N+](=O)[O-])c(C(F)(F)F)c1 [flutamide, reference compound] | 16.6 |  |
| Cc1c(C)c2c(c(C)c1O)CCC(C)(COc1ccc(CC3SC(=O)NC3=O)cc1)O2 (centres unmarked) [troglitazone, reference compound] |  | identified |
